Key:
Assay type in all cases: cell-based
[1] = system: PC3 cells; test: Western blot of EMT, CSC markers and AR in PC3; conditions: PC3, 20 μM, 48 hours
Source text: (§1) Due to our interest in CRPC the cell lines DU145 and PC3 were chosen due to their chemoresistance to high concentrations of enzalutamide, androgen independence, and relatively high expression of FOXC2 (FIGS. 30A&B). First, the effect of MC-1-F2 on the inhibition of EMT markers was examined (FIGS. 26A-G). […] The variability in E-cadherin expression can be due to a different mode of action the ligand MC-1-F2 is having on prostate cancer cells, possibly a time dependent effect of the ligand.
(§2) After confirmation of the ligand's ability to block EMT, the ligand's ability to decrease cancer stem cell (CSC) characteristics was determined. CRPC is plagued by a higher ratio of CSC to normal prostate cells, leading to the acquired characteristics of higher proliferative and self-renewal capabilities (Yun et al., 2016). CSC markers, Nanog, C-myc and KLF4, were examined.
(§3) 50 μg of total protein per sample was incubated with 4× loading buffer at 100° C. for 5 min. Protein samples were then loaded into a polyacrylamide gel and subjected to SDS-PAGE. Resolved proteins were then transferred by a wet transfer method to a PVDF membrane at 100 V for 1 hour using a BioRad Mini Trans-Blot Electrophoresis Transfer Cell. Upon the completion of wet transfer, the membrane was then blocked with 5% (w/v) fat-free milk in 1× Tris-buffered saline/0.1% (v/v) Tween-20 (TBS-T) for at least 1 hour. Then incubated with the respective primary antibodies diluted in 5% BSA in 1×TBST at 4° C. overnight. The following day exposed to 1:1000 dilution of anti-mouse […] secondary antibodies in 5% (w/v) fat-free milk in 1×TBS-T for 1 hour at room temperature. The probed proteins were then detected for chemiluminescent signal using SuperSignal Chemiluminescent Substrate (PIERCE). Pierce antibodies: B-actin, and all other antibodies used are from cell signaling.

[2] = system: DU145 cells; test: Western blot of EMT, CSC markers and AR in DU145; conditions: DU145, 20 μM, 48 hours
Source text: as §1, §2, §3

[3] = system: PC3 cells; test: Transwell invasion assay, PC3; conditions: PC3, 24 hours, vs DMSO
Description: Following determination of both inhibition of EMT and CSC properties, the inhibition of the migratory and invasive capabilities of both cell lines following MC-1-F2 treatment was examined through the use of a transwell invasion assay.
Matrigel invasion chambers (Corning) were allowed to come to room temperature and allowed to rehydrate for 2 hours in a cell incubator. Cells were treated 24 hours prior to assay and starved in 2% FBS in DMEM for 2 hours prior to assay. A cell suspension containing 5×10^4 cells/mL was prepared. Chemoattractant (DMEM+10% FBS) was added to the bottom of the wells. Using forceps, the inserts were transferred inside the wells and 0.5 mL of cell suspension was immediately added. The chambers were incubated for 22 hours in a humidified tissue culture incubator. After the 22 hours, the non-invading cells were removed by scrubbing the surface of the membrane. The cells were fixated with 4% formaldehyde solution for 2 minutes at room temperature. Followed by permeabilization of the membrane with 100% MeOH for 20 minutes at room temperature. The cells were stained with 0.5% crystal violet solution and several images of the wells were then taken and total number of cells counted for analysis.

N=C(N)NCCCCNc1nc(Nc2ccc(Oc3ccccc3)cc2)nc(N2CCN(c3nc(N)nc(Nc4ccc(N5CCOCC5)cc4)n3)CC2)n1 [MC-1-F2]
AR expression [1]: no effect on AR expression
CSC markers Nanog, C-myc and KLF4 [1]: significant decreases
E-cadherin expression levels [1]: no recovery in the expression levels of E-cadherin
EMT markers ZEB1, Vimentin, N-cadherin and Slug [1]: inhibit various EMT markers
epithelial marker ZO-1 expression [1]: recovery of the epithelial marker ZO-1
AR expression [2]: no effect on AR expression
CSC markers Nanog, C-myc and KLF4 [2]: significant decreases
E-cadherin expression levels [2]: recovery of E-cadherin
EMT markers ZEB1, Vimentin, N-cadherin and Slug [2]: inhibit various EMT markers
epithelial marker ZO-1 expression [2]: recovery of the epithelial marker ZO-1
invasiveness (transwell invasion) [3]: remarkable inhibition in invasiveness
